The record followed here is patent US8969294B2 (Istituto di Recerche di Biologia Molecolare P. Angeletti …, priority 2008, dated 2015).

Assay [1] relates to Uncoupling protein I (UCP1). Put plainly: UCP1 levels in brown adipose tissue. The arrangement: species or system mice. The following applies: mouse, in vivo.
Assay [2] deals with hormone sensitive lipase (HSL). Put plainly: Western blot of WAT HSL phosphorylation. It counts as in vivo, mice. The settings on record: one month treatment. The procedure:
Adipose tissue was placed in a 1.5-ml microfuge tube and lysed in ice cold RIPA buffer (1×PBS, 1% Nonidet P40, 0.5% sodium doxycholate, 0.1% SDS with 50 mM NaF, […], 0.1 mM Na Vanadate, 20 μg/ml Aprotinin, 10 μg/ml Leupeptin) using a tissue lyser (Retsch, Inc Newtown, Pa. Cat. #85210) at 30 hz for 3 min. Samples were spun at 12,000 rpm for 15 min (4° C.) at which time the internatant was removed to a new tube and sonicated for 15 sec on ice. Samples were spun at 14,000 rpm for 10 min (4° C.) and the internatant was collected to a new tube. Samples were again spun at 19,000 rpm for 10 min (4° C.) and the internatant collected to a new tube. An aliquot of sample was then taken for protein assay. Samples were then boiled in 4×SDS/DTT buffer for 2 min. 50 μg of protein from cell lysate were subjected to SDS/PAGE on 9% (w/v) acrylamide resolving gels and transferred to Hybond ECL nictrocellulose membranes. […] After washing, primary antibody detection was performed using either HRP-conjugated anti-(rabbit IgG) or anti-(mouse IgG) (HRP-conjugated anti-rabbit and anti-mouse secondary antibodies were purchased from Bio-Rad (170-6515 & 170-6516)) and detected using enhanced chemiluminescence (Amersham Biosciences) and exposed to CL-Xposure film (Pierce).
(A western blot detects proteins with antibodies after separation by electrophoresis.)

Assay [3] can be described thus: GLP-1 receptor knock out (GLP-1R−/−) mice on high-fat diet, one month. The assay is classed as in vivo.
Assay [4] in a line: Body weight of DIO mice after i.p. injection (Example 26). The assay is classed as in vivo. The following applies: 15 or 70 nmol/kg i.p., 7 days. The procedure: DIO mice were injected intraperitoneally with vehicle only or 15 or 70 nmol/kg of one of the following:
Body weight was measured before injection and at 1, 3, 5, and 7 days post-injection.

A short description of assay [5]: Diet-induced obese rats, once-a-week injection, 3-week treatment. The assay is classed as in vivo. The settings on record: 70 nmol/kg/week, 3 weeks. The procedure:
To determine if the principal phenomenon generalizes across species, both compounds were administered to diet-induced obese rats (mean weight 777.4+/−2.1 g, dose 70 nmol/kg/week, once-a-week injection, 3-week treatment).

Assay [6] is described as follows: Diet-induced obese C57B6 mice, s.c. Peptide X-PEG / Y-PEG (Examples 45-49). It counts as in vivo. On the procedure:
C57BI/6 mice were obtained from Jackson Laboratories and fed a diabetogenic diet from Research Diets, a high sucrose diet with 58% kcal from fat. Mice were single or group-housed on a 12:12-h light-dark cycle at 22° C. with free access to food and water. All studies were approved by and performed according to the guidelines of the Institutional Animal Care and Use Committee of the University of Cincinnati.
Whole body composition (fat and lean mass) was measured using NMR technology (EchoMRI, Houston, Tex.).
Energy intake and expenditure, as well as home-cage activity, were assessed by using a combined indirect calorimetry system (TSE Systems, Bad Homburg, Germany). Oxygen consumption and CO2 production were measured every 45 min for a total of 120 h (including 12 h of adaptation) to determine the respiratory quotient and energy expenditure. Food and water intake and meal patterns were determined continuously for 120 h at the same time as the indirect calorimetry assessments by integration of scales into the sealed cage environment. Meals were defined as food intake events with a minimum duration of 60 s, and a break of 300 s between food intake events. Home-cage locomotor activity was determined using a multidimensional infrared light beam system with beams scanning the bottom and top levels of the cage, and activity being expressed as beam breaks. Stationary motor activity (fidgeting) was defined as consecutive breaks of one single light beam at cage-bottom level, ambulatory movement as breaks of any two different light beams at cage-bottom level, and rearing as simultaneous breaks of light beams on both cage-bottom and the top level.
Blood was collected after a 6-h fast from tail veins using EDTA-coated Microvette tubes (Sarstedt, Nuremberg, Germany) and immediately chilled on ice. After 15 min of centrifugation at 3,000 g and 4° C., plasma was stored at −80° C. Plasma insulin was quantified by a radioimmunoassay from Linco (Sensitive Rat Insulin RIA; Linco Research, St. Charles, Mo.). Plasma TGs and cholesterol levels were measured by enzymatic assay kits (Thermo Electron, Waltham, Mass.). Samples were analyzed individually with the exception that pooled samples (0.25 ml) from 5 animals/group were subjected to fast-performance liquid chromatography (FPLC) gel filtration on two Superose 6 columns connected in series for lipoprotein separation. All assays were performed according to the manufacturer's instructions.
For the determination of glucose tolerance, mice were subjected to 6 h of fasting and injected intraperitoneally (i.p.) with 2 g glucose/kg body wt (50% D-glucose (Sigma) in 0.9% saline) for the glucose tolerance test (GTT). Tail blood glucose levels (mg/dl) were measured by using a hand-held glucometer (TheraSense Freestyle) before (0 min) and at 15, 30, 60, 90, and 120 min after injection.
The 40-kd pegylated peptides Peptides X-PEG and Y-PEG were used as single weekly subcutaneous (s.c) injections in diet-induced obese (D10) C57B6 mice.
Long-term effects of these lower doses on food intake (p=0.95; FIG. 29C) were less impressive than short-term effects with a higher dose (FIG. 27C).

Assay [7] in a line: Glucose challenge in DIO mice after i.p. peptide (Examples 24, 25). The assay is classed as in vivo. The following applies: 2, 20, 70 nmol/kg i.p. The procedure: Diet-induced obesity (DIO) mice were injected intraperitoneally at the −15 min time point with 0.2, 2, 20, or 70 nmol/kg of one of the following:
A saline solution comprising 25% (v/v) glucose was injected at a dose of 1.5 g/kg of body weight at the 0 min time point. Blood glucose levels were measured at the −15, 0, 15, 30, 60, and 120 min time points.
DIO mice were injected intraperitoneally at the −24 hr time point with 70 nmol/kg of one of the following:
A saline solution comprising 25% (v/v) glucose was injected at a dose of 1.5 g/kg of body weight at the 0 min time point. Blood glucose levels were measured at the 0, 15, 30, 60, and 120 min time points.

A short description of assay [8]: DIO mice, i.p. once a week for 2 weeks (Example 30). The assay is classed as in vivo. The following applies: glucose 24 hours after peptide. On the procedure: Changes in body weight of and food intake by the mice were measured 0, 1, 3, 5, 7, 8, 10, 12, and 14 days after injection. Blood glucose levels of the mice were monitored throughout the 14 days. Glucose tolerance tests were performed by injecting a 25% glucose in saline solution 1 hour or 24 hours after administration of the acylated or pegylated peptide and measuring blood glucose levels at −60, 0, 15, 30, 60, or 120 min after the glucose injection.

Where [9] appears, read: 70 nmol/kg s.c. Days 0 and 7, Day 9.

Square brackets hold non-standard residues; d marks the D form. Ends that are not written are not given here. Aib = CC(C)(N)C(=O)O

Consider “H(Aib)QGTFTSDYSKYLDEQAAKEFICWLMNT-amide [Peptide X-PEG]”, for which the “Uncoupling protein I (UCP1) levels in brown adipose tissue” value in assay [1] turned out to be 2.167±0.429. The “phosphorylation of hormone sensitive lipase (HSL) in white adipose tissue” value in assay [2] stood at 1.135±0.315. In addition, in assay [3], the body weight result is listed as “caused a reduction of body weight (p>0.05” and the food intake entry is given as “no effect on food intake”. For the same substance, in assay [4], the “ability to lower body weight” value is “comparable ability to lower body weight”. In addition, in assay [5], the “change in body weight” value is given as −11.15+/−0.88% and the “change in fat mass” value is listed as −19.17+/−2.03%. In assay [6] (setting [9]), the leptin stood at 7308 ± 2927 pg/mL and the plasma triglycerides result is recorded as “no significant effect on triglycerides”. For the same substance, the “blood glucose profile (AUC), i.p. glucose challenge” value in assay [6] (Day 3) was found to be 13794±824.1. For the same substance, in assay [6] (after one month of treatment), the “Plasma C-peptide levels” value was determined as 624.7 pg/mL and the plasma insulin is 1034 pg/mL. This substance also registered a total cholesterol in assay [6] (chronic s.c. treatment over 27 days) of 106.9 mg/dL. Also, the “dose response of body weight and blood glucose” value in assay [6] (single s.c. 0-350 nmol/kg) is “linearly responsive, dose-dependent decreases in body weight and blood glucose”. Moreover, in assay [6] (weekly s.c. 70 nmol/kg), the Energy expenditure amounted to 17.19±1.49 kcal/[kg*h], the “change in fat mass” value was −52.2% and the respiratory quotient is 0.725±0.01. In addition, the “Blood glucose levels, mean decrease” value in assay [6] (weekly s.c. 70 nmol/kg, from Day 3) was −24.5%. Further, the “decrease in body weight” value in assay [6] (weekly s.c. 70 nmol/kg, one month) is 20.1%.

In the case of “Peptide A K^10—C8: Chimera 2 with AIB2, Lys10 acylated with C8 fatty acid, Cys24 40K PEG (H[Aib]QGTFTSDK(C8 fatty acid)SKYLDEQAAKEFIC(PEG 40 kDa)WLMNT-NH2)”, the “ability to lower blood glucose, glucose challenge 15 min after peptide” value in assay [7] is given as “greatest ability to lower blood glucose”. Further, the “blood glucose levels in response to a glucose injection” value in assay [8] is “lowered in comparison to vehicle control”.
